Target: T1, human MDM2 (GST-hMDM2 aa 1-188), interaction with biotinylated-p53 (aa 1-83) (Homo sapiens, UniProt Q00987)
T1 construct: Amino acid residues 1-188 of human MDM2 were expressed; made in house; host or cells: Escherichia coli
Assay: Homogenous Time-Resolved Fluorescence Assay (HTRF1 assay), inhibition of HDM2-p53 interaction
Type: binding
Conditions: 2.5 nM GST-hMDM2, 5 nM biotinylated-p53, 200 mM KF
Description: Homogenous Time-Resolved Fluorescence Assay (HTRF1 Assay)
Residues 1-83 of human p53 were expressed as an amino-terminal AviTag™-TrxA-6xHis fusion protein (biotinylated p53) in E. coli. Each protein was purified from cell paste by affinity chromatography.
Specifically, 10 uL of GST-hMDM2 was incubated with 10 ul of diluted compound (various concentrations, serially diluted) in 10% DMSO for 20 minutes at room temperature. 20 uL of biotinylated-p53 was added to the GST-hMDM2+ compound mixture, and then incubated at room temperature for 60 min. 10 uL of detection buffer consisting of SA-XLent, anti-GST cryptate antibody and KF was added to GST-hMDM2, biotinylated-p53 and compound reaction and left at room temperature to reach equilibrium for >4 hrs. The final concentration of DMSO in the reaction was 2%. Time-resolved fluorescence readings were measured on a microplate multilabel reader. Percentage of inhibition was calculated relative to nutlin-3.

T1 sequence (Q00987 1-188): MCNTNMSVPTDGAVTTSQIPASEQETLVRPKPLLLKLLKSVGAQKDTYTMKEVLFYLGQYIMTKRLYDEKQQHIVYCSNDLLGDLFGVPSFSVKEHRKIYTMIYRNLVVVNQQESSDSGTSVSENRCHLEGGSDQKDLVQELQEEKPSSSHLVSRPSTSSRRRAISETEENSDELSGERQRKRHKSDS

Row | SMILES | IC50 [nM]
1 | CCCCN1C(=O)[C@H](CC(=O)O)O[C@H](c2cccc(Cl)c2)[C@H]1c1ccc(Cl)cc1 [Example 40, 2-((2S,5R,6R)-4-Butyl-6-(3-chlorophenyl)-5-(4-chlorophenyl)-3-oxomorpholin-2-yl)acetic acid] | 700
2 | COc1ccc([C@@H]2[C@@H](c3cccc(Cl)c3)OC(CC(=O)O)C(=O)N2CC2CC2)cn1 (single isomer, unassigned) [Example 74] | 4500
3 | O=C(O)CC1O[C@H](c2cncc(Cl)c2)[C@@H](c2ccc(Cl)cc2)N(CC2CC2)C1=O (single isomer, unassigned) [Example 87] | 1800
4 | O=C(O)/C=C1\O[C@H](c2cccc(Cl)c2)[C@@H](c2ccc(Cl)cc2)N(CC2CC2)C1=O (single isomer, unassigned; isomer 1) [Example 51, (Z)-2-((5R,6R)-6-(3-Chlorophenyl)-5-(4-chlorophenyl)-4-(cyclopropylmethyl)-3-oxomorpholin-2-ylidene)acetic acid or (E)-2-((5R,6R)-6-(3-Chlorophenyl)-5-(4-chlorophenyl)-4-(cyclopropylmethyl)-3-oxomorpholin-2-ylidene)acetic acid (Isomer 1)] | 600
5 | O=C(O)C[C@@H]1O[C@H](c2cccc(Cl)c2)[C@@H](c2ccccc2)N(CC2CC2)C1=O [Example 55, 2-((2S,5R,6R)-6-(3-Chlorophenyl)-4-(cyclopropylmethyl)-3-oxo-5-phenylmorpholin-2-yl)acetic acid] | 3300
6 | O=C(O)C[C@H]1O[C@H](c2cccc(Cl)c2)[C@@H](c2ccccc2)N(CC2CC2)C1=O [Example 63, 2-((2R,5R,6R)-6-(3-Chlorophenyl)-4-(cyclopropylmethyl)-3-oxo-5-phenylmorpholin-2-yl)acetic acid] | 9100
7 | O=C(O)C[C@H]1O[C@H](c2cccc(Cl)c2)[C@@H](c2ccc(OC(F)(F)F)cc2)N(CC2CC2)C1=O [Example 65, 2-((2R,5R,6R)-6-(3-Chlorophenyl)-4-(cyclopropylmethyl)-3-oxo-5-(4-(trifluoromethoxy)phenyl)morpholin-2-yl)acetic acid] | 1100
8 | O=C(O)CC1O[C@H](c2ccnc(Cl)c2)[C@@H](c2ccc(Cl)cc2)N(CC2CC2)C1=O (single isomer, unassigned) [Example 91] | 600
9 | O=C(O)C[C@@H]1O[C@H](c2cccc(Cl)c2)[C@@H](c2nc3ccccc3s2)N(CC2CC2)C1=O (racemic) [Example 3, 2-((2S,5S,6R)-5-(Benzo[d]thiazol-2-yl)-6-(3-chlorophenyl)-4-(cyclopropylmethyl)-3-oxomorpholin-2-yl)acetic acid and 2-((2R,5R,6S)-5-(Benzo[d]thiazol-2-yl)-6-(3-chlorophenyl)-4-(cyclopropylmethyl)-3-oxomorpholin-2-yl)acetic acid] | 23500
10 | O=C(O)CC1O[C@H](c2cccc(Cl)c2)[C@@H](c2ccc(C(F)(F)F)nc2)N(CC2CC2)C1=O (single isomer, unassigned) [Example 82] | 30000
11 | O=C(O)C[C@@H]1O[C@H](c2cccc(Cl)c2)[C@@H](c2ccc(F)cc2)N(CC2CC2)C1=O [Example 56, 2-((2S,5R,6R)-6-(3-Chlorophenyl)-4-(cyclopropylmethyl)-5-(4-fluorophenyl)-3-oxomorpholin-2-yl)acetic acid] | 700
12 | O=C(O)CC1O[C@H](c2cccc(Cl)c2)[C@@H](c2ccc(Cl)c(F)c2)N(CC2CC2)C1=O (single isomer, unassigned) [Example 77] | 300
13 | COc1cccc([C@H]2OC(CC(=O)O)C(=O)N(CC3CC3)[C@@H]2c2ccc(Cl)cc2)c1 (single isomer, unassigned) [Example 89] | 6100
14 | CCCN1C(=O)[C@@H](CC(=O)O)O[C@H](c2cccc(Cl)c2)[C@H]1c1ccc(Cl)cc1 [Example 48, 2-((2R,5R,6R)-6-(3-Chlorophenyl)-5-(4-chlorophenyl)-3-oxo-4-propylmorpholin-2-yl)acetic acid] | 500
15 | O=C(O)C[C@H]1O[C@H](c2cccc(Cl)c2)[C@@H](c2ccc(Cl)cc2)N(C2CCCCC2)C1=O [Example 17, 2-((2R,5R,6R)-6-(3-Chlorophenyl)-5-(4-chlorophenyl)-4-cyclohexyl-3-oxomorpholin-2-yl)acetic acid] | 200
16 | O=C(O)CC1O[C@H](c2cc(Cl)cc(Br)c2)[C@@H](c2ccc(Cl)cc2)N(CC2CC2)C1=O (single isomer, unassigned) [Example 104] | 500
17 | O=C(O)C[C@H]1O[C@H](c2cccc(Cl)c2)[C@@H](c2nc3ccccc3s2)N(CC2CC2)C1=O (racemic) [Example 4, 2-((2R,5S,6R)-5-(Benzo[d]thiazol-2-yl)-6-(3-chlorophenyl)-4-(cyclopropylmethyl)-3-oxomorpholin-2-yl)acetic acid and 2-((2S,5R,6S)-5-(Benzo[d]thiazol-2-yl)-6-(3-chlorophenyl)-4-(cyclopropylmethyl)-3-oxomorpholin-2-yl)acetic acid] | 25000
18 | O=C(O)/C=C1/O[C@H](c2cccc(Cl)c2)[C@@H](c2ccc(Cl)cc2)N(CC2CC2)C1=O (single isomer, unassigned; isomer 2) [Example 52, (E)-2-((5R,6R)-6-(3-Chlorophenyl)-5-(4-chlorophenyl)-4-(cyclopropylmethyl)-3-oxomorpholin-2-ylidene)acetic acid or (Z)-2-((5R,6R)-6-(3-Chlorophenyl)-5-(4-chlorophenyl)-4-(cyclopropylmethyl)-3-oxomorpholin-2-ylidene)acetic acid (Isomer 2)] | 19700
19 | C=CCN1C(=O)[C@H](CC(=O)O)O[C@H](c2cccc(Cl)c2)[C@H]1c1ccc(Cl)cc1 [Example 47, 2-((2S,5R,6R)-4-Allyl-6-(3-chlorophenyl)-5-(4-chlorophenyl)-3-oxomorpholin-2-yl)acetic acid] | 800
20 | O=C(O)CC1O[C@H](c2cccc(Cl)c2)[C@@H](c2ccc(Cl)nc2)N(CC2CC2)C1=O (single isomer, unassigned) [Example 72] | 1500
21 | O=C(O)CC1O[C@H](c2cc(Cl)ccc2F)[C@@H](c2ccc(Cl)cc2)N(CC2CC2)C1=O (single isomer, unassigned) [Example 101] | 600
22 | O=C(O)C[C@H]1O[C@H](c2cccc(Cl)c2)[C@@H](c2ccc(Cl)cc2F)N(CC2CC2)C1=O (single isomer, unassigned) [Example 62] | 900
23 | O=C(O)CC1O[C@H](c2cc(F)cc(Cl)c2)[C@@H](c2ccc(Cl)cc2)N(CC2CC2)C1=O (single isomer, unassigned) [Example 84] | 300
24 | Cc1cccc([C@H]2OC(CC(=O)O)C(=O)N(CC3CC3)[C@@H]2c2ccc(Cl)cc2)c1 (single isomer, unassigned) [Example 103] | 3400
25 | O=C(O)C[C@H]1O[C@H](c2cc(Cl)cc(-c3cncnc3)c2)[C@@H](c2ccc(Cl)cc2)N(CC2CC2)C1=O (single isomer, unassigned) [Example 108] | 4300
26 | O=C(O)C[C@H]1OC(c2cccc(Cl)c2)[C@@H](c2ccc(Cl)cn2)N(CC2CC2)C1=O (single isomer, unassigned) [Example 8] | 1600
27 | CS(=O)(=O)c1cc(Cl)cc([C@H]2O[C@@H](CC(=O)O)C(=O)N(CC3CC3)[C@@H]2c2ccc(Cl)cc2)c1 (single isomer, unassigned) [Example 111] | 2300

Reference: patent US9376425B2, “Heterocyclic compounds as MDM2 inhibitors for the treatment of cancer” (AMGEN INC., priority 2011, dated 2016)
